How the values were obtained:
Type in all cases: ADME, organism-based
Set-up in all cases: dose 30 mg/kg, route intravenous
[1] = Clearance in pancreatitis Sprague-Dawley rat blood at 30 mg/kg, iv after 30 mins
[2] = Cmax in pancreatitis Sprague-Dawley rat blood at 30 mg/kg, iv after 30 mins
[3] = Tmax in pancreatitis Sprague-Dawley rat blood at 30 mg/kg, iv after 30 mins
[4] = Tmax in pancreatitis Sprague-Dawley rat peritoneal fluid at 30 mg/kg, iv after 30 mins
[5] = Selectivity ratio of AUC in pancreatitis Sprague-Dawley rat peritoneal fluid to AUC in pancreatitis Sprague-Dawley rat blood at 30 mg/kg, iv after 30 mins; conditions: read-out: Ratio AUC
[6] = Cmax in pancreatitis Sprague-Dawley rat peritoneal fluid at 30 mg/kg, iv after 30 mins
[7] = Half life in pancreatitis Sprague-Dawley rat blood at 30 mg/kg, iv after 30 mins
[8] = Half life pancreatitis Sprague-Dawley rat peritoneal fluid at 30 mg/kg, iv after 30 mins

Question: Which results are given for `C[C@@H](O)[C@H]1C(=O)N2C(C(=O)O)=C(SCCN=CN)C[C@H]12` [IMIPENEM ANHYDROUS]?
Answer: clearance [1]: 17 mL/min/kg; Cmax [2]: 53.9 µg/mL; Tmax [3]: 35 min; Tmax [4]: 36.7 min; Kp at 0.5 h [5]: 1.08; Cmax [6]: 51.8 µg/mL; half-life [7]: 17.3 min; half-life [8]: 17.6 min

Source: ChEMBL document CHEMBL1255274, “Microdialysis study of imipenem distribution in the peritoneal fluid of rats with experimental acute pancreatitis” (Antimicrob Agents Chemother, 2008)
